Data on three molecules can be found in US8212031B2, “Pyrrolotriazine kinase inhibitors” (Bristol-Myers Squibb Company, priority 2008, dated 2012).

Chain of IGF1-receptor (P08069 31-1367): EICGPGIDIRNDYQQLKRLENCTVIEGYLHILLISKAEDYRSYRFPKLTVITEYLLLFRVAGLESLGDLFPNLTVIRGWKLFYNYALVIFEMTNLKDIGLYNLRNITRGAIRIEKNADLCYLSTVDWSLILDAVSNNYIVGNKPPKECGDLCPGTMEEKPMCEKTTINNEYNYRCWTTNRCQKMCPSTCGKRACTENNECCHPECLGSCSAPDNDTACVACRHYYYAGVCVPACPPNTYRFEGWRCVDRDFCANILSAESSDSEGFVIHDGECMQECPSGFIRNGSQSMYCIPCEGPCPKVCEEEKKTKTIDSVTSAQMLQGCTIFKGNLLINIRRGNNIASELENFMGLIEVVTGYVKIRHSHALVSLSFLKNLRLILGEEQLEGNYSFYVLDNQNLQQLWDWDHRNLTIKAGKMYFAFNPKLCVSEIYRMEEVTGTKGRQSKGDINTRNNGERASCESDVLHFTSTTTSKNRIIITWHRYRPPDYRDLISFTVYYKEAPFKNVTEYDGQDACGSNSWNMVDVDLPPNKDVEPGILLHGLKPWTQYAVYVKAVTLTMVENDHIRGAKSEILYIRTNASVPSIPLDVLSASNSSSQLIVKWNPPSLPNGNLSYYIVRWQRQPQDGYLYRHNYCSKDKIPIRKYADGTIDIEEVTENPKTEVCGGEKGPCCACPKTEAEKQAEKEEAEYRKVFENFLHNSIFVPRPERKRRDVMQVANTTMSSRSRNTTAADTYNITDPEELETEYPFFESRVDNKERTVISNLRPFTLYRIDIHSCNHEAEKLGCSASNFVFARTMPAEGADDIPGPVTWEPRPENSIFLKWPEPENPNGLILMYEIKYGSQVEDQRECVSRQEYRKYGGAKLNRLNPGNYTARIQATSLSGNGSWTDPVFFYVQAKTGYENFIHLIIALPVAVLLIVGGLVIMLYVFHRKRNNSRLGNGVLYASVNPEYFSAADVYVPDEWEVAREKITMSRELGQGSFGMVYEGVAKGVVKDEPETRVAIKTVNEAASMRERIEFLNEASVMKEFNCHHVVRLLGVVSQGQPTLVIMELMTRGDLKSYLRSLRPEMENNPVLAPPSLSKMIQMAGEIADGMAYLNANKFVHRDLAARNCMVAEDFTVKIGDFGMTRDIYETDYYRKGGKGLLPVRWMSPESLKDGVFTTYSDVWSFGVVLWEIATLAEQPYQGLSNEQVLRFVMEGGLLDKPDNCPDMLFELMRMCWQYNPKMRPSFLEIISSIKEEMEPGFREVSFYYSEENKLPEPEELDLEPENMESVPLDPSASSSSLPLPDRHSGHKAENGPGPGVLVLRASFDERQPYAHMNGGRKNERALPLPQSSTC

The assay addresses IGF1-receptor (Homo sapiens, UniProt P08069). Nature of the assay: IGF1-Receptor Tyrosine Kinase Assay. Conditions: in vitro kinase assay; ATP 25 μM; FL-peptide 1.5 μM; IGF1-Receptor 14 nM; 60 min room temperature; Caliper LabChip 3000; read-out: IGF1R kinase IC50. It is filed as biochemical. How it is done:
A IGF1-Receptor Tyrosine Kinase Assay
The assays were performed in U-bottom 384-well plates. The final assay volume was 30 μl prepared from 15 μl additions of enzyme and substrates (fluoresceinated IGF1R substrate peptide and ATP) and test compounds in assay buffer (100 mM HEPES pH 7.4, 10 mM MnCl2, 0.015% Brij35 and 4 mM DTT). The reaction was initiated by the combination of IGF1-receptor with substrates and test compounds. The reaction was incubated at room temperature for 60 min. and terminated by adding 30 μl of 35 mM EDTA to each sample. The reaction mixture was analyzed on the Caliper LabChip 3000 by electrophoretic separation of the fluorescent substrate and phosphorylated product Inhibition data were calculated by comparison to no enzyme control reactions for 100% inhibition and vehicle-only reactions for 0% inhibition. The final concentration of reagents in the assays are ATP, 25 μM; FL-peptide, 1.5 μM; IGF1-Receptor, 14 nM; and DMSO, 1.6%. Dose response curves were generated to determine the concentration required inhibiting 50% of kinase activity (IC50). Compounds were dissolved at 10 mM in dimethylsulfoxide (DMSO) and evaluated at eleven concentrations, each in duplicate. IC50 values were derived by non-linear regression analysis.
For `O=C(Nc1ccc(F)nc1)N1CCCCN1c1nc(Nc2cc(C3CC3)n[nH]2)c2cccn2n1` [Example 2], the IC50 is 20 nM. On to `O=C(Nc1nccs1)N1CCCCN1c1nc(Nc2cc(C3CC3)n[nH]2)c2cccn2n1` [Example 3], for which the IC50 came out at 2 nM. Then `O=C(c1nccs1)N1CCCCN1c1nc(Nc2cc(C3CC3)n[nH]2)c2cccn2n1` [Example 4], with 62 nM.

What is called IC50 is the concentration needed to halve the response being measured.
